Where two headings read alike, the source gives them in different places.
Assays:
[1] = system: spontaneous hypertensive rats (SHR); test: Hypotensive Action: systolic pressure from tail artery of SHR after oral administration 10 mg/Kg once a day for 2 days; type: in vivo, rat; settings: oral 10 mg/Kg, * = significant vs control, P = 0.01
[2] = system: spontaneous hypertensive rats (SHR); test: as above; type: in vivo, rat; settings: oral 10 mg/Kg, * = significant vs control, P = 0.01; remark: listed apart in the source
Protocol: A test compound suspended in a gum arabic solution was orally administered once a day, at a dose of 10 mg/Kg (body weight), for 2 days, to groups of spontaneous hypertensive rats (hereinafter referred to as "SHR") (about 30 weeks old; systolic pressure=about 230 mm Hg), each group consisting of 6 rats.
The systolic pressure was measured from the tail artery of SHR under no anesthesia before the administration and 6 hours after the time of administration by using a continuous tonometer (Shimazu Tonometer Model SCS-301 manufactured by Shimazu Seisakusho K.K.). An aqueous solution of gum arabic alone was administered to the rats of the control group.

[3] = system: rats of the SD series; test: Acute Toxicity: LD50 in rats of the SD series, 14 days observation; type: in vivo; settings: female
Text: (§1) Groups of rats of the SD series (body weight=160-280 g; about 8 weeks old), each group consisting of 5 rats, were used. After administration of the test compound, the death or survival was examined during a period of 14 days to determine the LD50 value.

[4] = as above; type: in vivo; settings: rat, in vivo, male
Text: as §1

[5] = ip, abdominal administration, read-out: LD50, Abdominal Administration, male
[6] = oral, read-out: LD50, Oral Administration, male

Structure (SMILES) | Blood Pressure (mm Hg) on Second Day, after 24 hours [1] | Blood Pressure (mm Hg) on First Day, after 6 hours [2] | Blood Pressure (mm Hg) on Second Day, after 6 hours [2] | Blood Pressure (mm Hg) on Second Day, before administration [2] | LD50, Abdominal Administration, female [3] | LD50, Oral Administration, female [3] | LD50 at 336 h [4, 5] | LD50 at 336 h [4, 6]
O=C(Cc1ccc(Cl)cc1)C1C(=O)CC(c2ccccc2)CC1=O (stereo not drawn) | 222 ± 4 mm Hg | 215 ± 1 mm Hg | 215 ± 2 mm Hg | 217 ± 4 mm Hg | – | – | – | –
O=C(CCc1ccc2c(c1)OCO2)C1C(=O)CC(c2ccccc2)CC1=O (stereo not drawn) [drawing 33] | – | – | – | – | > 500 | > 4000 | > 500 mg/kg | > 4000 mg/kg
COc1ccc(CCC(=O)C2C(=O)CC(c3ccccc3)CC2=O)cc1 (stereo not drawn) | 212 ± 6 mm Hg | 209 ± 5 mm Hg | 210 ± 5 mm Hg | 213 ± 6 mm Hg | – | – | – | –
O=C(CCc1ccc2c(c1)OC(c1ccccc1)(c1ccccc1)O2)C1C(=O)CC(c2ccccc2)CC1=O (stereo not drawn) | 208 ± 5 mm Hg | 202 ± 5 mm Hg | 192 ± 5 mm Hg | 210 ± 10 mm Hg | – | – | – | –
O=C(CCc1ccc(O)c(O)c1)C1C(=O)CC(c2ccccc2)CC1=O (stereo not drawn) | 205 ± 5 mm Hg | 204 ± 5 mm Hg | 200 ± 5 mm Hg | 209 ± 5 mm Hg | – | – | – | –
CC1(C)Oc2ccc(CCC(=O)C3C(=O)CC(c4ccccc4)CC3=O)cc2O1 (stereo not drawn) | 192 ± 7 mm Hg | 207 ± 3 mm Hg | 190 ± 5 mm Hg | 202 ± 7 mm Hg | – | – | – | –
COc1ccc(C2CC(=O)C(C(=O)CCc3ccc(O)c(O)c3)C(=O)C2)cc1 (stereo not drawn) | 228 ± 2 mm Hg | 212 ± 3 mm Hg | 220 ± 1 mm Hg | 225 ± 1 mm Hg | – | – | – | –
COc1ccccc1C1CC(=O)C(C(=O)CCc2ccc3c(c2)OCO3)C(=O)C1 (stereo not drawn) | 220 ± 6 mm Hg | 210 ± 5 mm Hg | 205 ± 5 mm Hg | 220 ± 6 mm Hg | – | – | – | –
O=C(Cc1ccccc1)C1C(=O)CC(c2ccccc2)CC1=O (stereo not drawn) [drawing 35] | – | – | – | – | > 500 | > 4000 | > 500 mg/kg | > 4000 mg/kg
Cc1ccc(C2CC(=O)C(C(=O)CCc3ccc4c(c3)OCO4)C(=O)C2)cc1 (stereo not drawn) [drawing 21] | 192 ± 5 mm Hg | 198 ± 5 mm Hg | 188 ± 5 mm Hg | 200 ± 10 mm Hg | – | – | – | –
O=C(CCc1ccc2c(c1)OCO2)C1C(=O)CC(c2ccccc2)CC1=O (stereo not drawn) [drawing 20] | 207 ± 7 mm Hg | 205 ± 7 mm Hg | 204 ± 6 mm Hg | 218 ± 7 mm Hg | – | – | – | –
O=C(CCc1ccccc1Cl)C1C(=O)CC(c2ccccc2)CC1=O (stereo not drawn) | 193 ± 1 mm Hg | 200 ± 3 mm Hg | 213 ± 4 mm Hg | 208 ± 9 mm Hg | – | – | – | –
O=C(Cc1ccccc1)C1C(=O)CC(c2ccccc2)CC1=O (stereo not drawn) [drawing 31] | 193 ± 7 mm Hg | 183 ± 3 mm Hg | 183 ± 3 mm Hg | 203 ± 3 mm Hg | – | – | – | –
Cc1ccc(C2CC(=O)C(C(=O)CCc3ccc4c(c3)OCO4)C(=O)C2)cc1 (stereo not drawn) [drawing 34] | – | – | – | – | > 500 | > 4000 | > 500 mg/kg | > 4000 mg/kg
CC(=O)Oc1ccc(CCC(=O)C2C(=O)CC(c3ccccc3)CC2=O)cc1OC(C)=O (stereo not drawn) | 212 ± 5 mm Hg | 195 ± 10 mm Hg | 195 ± 10 mm Hg | 222± 5 mm Hg | – | – | – | –
